What was measured:
[1] = target: Serine/threonine-protein kinase N2 (Homo sapiens, UniProt Q16513); assay: Selectivity interaction (KinomeScan (DiscoverX)) EUB0000229b PKN2; conditions: at 10 µM
[2] = target: T1, Phosphatidylinositol 5-phosphate 4-kinase type-2 beta (Homo sapiens) (UniProt P78356); conditions: at 10 µM
T1 sequence (whole entry): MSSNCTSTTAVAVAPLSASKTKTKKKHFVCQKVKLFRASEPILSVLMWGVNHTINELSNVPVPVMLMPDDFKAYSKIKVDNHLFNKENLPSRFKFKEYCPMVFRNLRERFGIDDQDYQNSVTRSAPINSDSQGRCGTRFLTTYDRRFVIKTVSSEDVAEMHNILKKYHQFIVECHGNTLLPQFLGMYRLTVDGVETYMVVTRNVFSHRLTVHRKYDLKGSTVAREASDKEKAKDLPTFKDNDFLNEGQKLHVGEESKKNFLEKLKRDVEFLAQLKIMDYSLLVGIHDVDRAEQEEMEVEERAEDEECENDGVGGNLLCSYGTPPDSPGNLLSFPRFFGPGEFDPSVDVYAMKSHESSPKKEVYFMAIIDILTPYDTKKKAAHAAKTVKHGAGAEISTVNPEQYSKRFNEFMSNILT

[3] = target: Serine/threonine-protein kinase 24 (Homo sapiens) (UniProt Q9Y6E0); assay: Selectivity interaction (KinomeScan (DiscoverX)) EUB0001619a STK24; conditions: at 1 µM
Serine/threonine-protein kinase 24 (Homo sapiens), sequence (Q9Y6E0 whole entry, looked up): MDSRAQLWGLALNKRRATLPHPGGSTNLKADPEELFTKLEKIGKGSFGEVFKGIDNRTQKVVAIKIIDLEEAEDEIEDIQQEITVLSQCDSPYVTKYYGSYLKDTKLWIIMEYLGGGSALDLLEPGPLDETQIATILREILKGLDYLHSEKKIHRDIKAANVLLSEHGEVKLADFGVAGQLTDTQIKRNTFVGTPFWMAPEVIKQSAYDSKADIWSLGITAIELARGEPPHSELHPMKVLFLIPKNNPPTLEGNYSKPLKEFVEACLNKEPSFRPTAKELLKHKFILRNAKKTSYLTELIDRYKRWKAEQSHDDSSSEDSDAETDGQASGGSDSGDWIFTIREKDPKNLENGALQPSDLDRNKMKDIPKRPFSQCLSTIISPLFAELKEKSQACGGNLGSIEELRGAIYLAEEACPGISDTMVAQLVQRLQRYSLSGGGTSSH

[4] = target: Serine/threonine-protein kinase PAK 6 (Homo sapiens) (UniProt Q9NQU5); assay: Selectivity interaction (KinomeScan (DiscoverX)) EUB0001619a PAK6; conditions: at 1 µM
Serine/threonine-protein kinase PAK 6 (Homo sapiens), sequence (Q9NQU5 whole entry, looked up): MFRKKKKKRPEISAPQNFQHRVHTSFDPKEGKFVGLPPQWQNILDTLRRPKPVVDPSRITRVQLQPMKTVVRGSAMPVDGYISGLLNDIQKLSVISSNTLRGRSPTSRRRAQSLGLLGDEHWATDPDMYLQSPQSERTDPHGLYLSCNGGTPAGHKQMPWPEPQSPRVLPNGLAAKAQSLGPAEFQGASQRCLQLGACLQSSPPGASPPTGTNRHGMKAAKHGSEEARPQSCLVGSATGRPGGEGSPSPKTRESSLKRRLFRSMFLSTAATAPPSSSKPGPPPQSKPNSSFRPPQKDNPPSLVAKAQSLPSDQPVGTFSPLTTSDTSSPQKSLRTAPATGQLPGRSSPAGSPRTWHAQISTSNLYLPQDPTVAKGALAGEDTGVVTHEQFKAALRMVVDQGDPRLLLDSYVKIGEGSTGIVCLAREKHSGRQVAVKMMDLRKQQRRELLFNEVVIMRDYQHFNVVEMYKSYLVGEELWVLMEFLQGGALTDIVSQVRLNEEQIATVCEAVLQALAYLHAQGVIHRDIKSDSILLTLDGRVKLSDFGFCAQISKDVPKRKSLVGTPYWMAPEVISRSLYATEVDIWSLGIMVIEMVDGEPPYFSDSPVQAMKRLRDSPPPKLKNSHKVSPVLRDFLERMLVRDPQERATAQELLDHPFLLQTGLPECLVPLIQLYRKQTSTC

[5] = target: T2, Histone-arginine methyltransferase CARM1 (Homo sapiens) (UniProt Q86X55); assay: Selectivity interaction (Methyltransferase screen (Scintillation proximity assays)) EUB0000255b CARM1
T2 sequence (whole entry): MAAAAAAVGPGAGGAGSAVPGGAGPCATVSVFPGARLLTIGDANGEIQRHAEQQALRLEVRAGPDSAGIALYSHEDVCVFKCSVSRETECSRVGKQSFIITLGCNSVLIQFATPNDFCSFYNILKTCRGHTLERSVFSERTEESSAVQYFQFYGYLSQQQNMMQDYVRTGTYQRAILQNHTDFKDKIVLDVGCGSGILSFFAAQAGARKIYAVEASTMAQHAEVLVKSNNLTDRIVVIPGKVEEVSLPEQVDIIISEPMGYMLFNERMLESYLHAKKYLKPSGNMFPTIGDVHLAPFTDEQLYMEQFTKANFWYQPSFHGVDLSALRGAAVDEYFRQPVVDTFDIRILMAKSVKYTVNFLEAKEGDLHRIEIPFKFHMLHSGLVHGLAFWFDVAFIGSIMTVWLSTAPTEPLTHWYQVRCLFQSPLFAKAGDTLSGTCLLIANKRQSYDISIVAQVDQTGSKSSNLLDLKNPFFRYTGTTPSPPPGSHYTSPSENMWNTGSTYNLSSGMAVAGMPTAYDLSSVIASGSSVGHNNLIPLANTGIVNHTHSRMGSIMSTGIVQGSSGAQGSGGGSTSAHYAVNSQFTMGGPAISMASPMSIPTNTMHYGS

[6] = target: Ephrin type-A receptor 5 (Homo sapiens) (UniProt P54756); assay: Selectivity interaction (Kinase panel (DSF assay)) EUB0001558a EPHA5
Ephrin type-A receptor 5 (Homo sapiens), sequence (P54756 whole entry): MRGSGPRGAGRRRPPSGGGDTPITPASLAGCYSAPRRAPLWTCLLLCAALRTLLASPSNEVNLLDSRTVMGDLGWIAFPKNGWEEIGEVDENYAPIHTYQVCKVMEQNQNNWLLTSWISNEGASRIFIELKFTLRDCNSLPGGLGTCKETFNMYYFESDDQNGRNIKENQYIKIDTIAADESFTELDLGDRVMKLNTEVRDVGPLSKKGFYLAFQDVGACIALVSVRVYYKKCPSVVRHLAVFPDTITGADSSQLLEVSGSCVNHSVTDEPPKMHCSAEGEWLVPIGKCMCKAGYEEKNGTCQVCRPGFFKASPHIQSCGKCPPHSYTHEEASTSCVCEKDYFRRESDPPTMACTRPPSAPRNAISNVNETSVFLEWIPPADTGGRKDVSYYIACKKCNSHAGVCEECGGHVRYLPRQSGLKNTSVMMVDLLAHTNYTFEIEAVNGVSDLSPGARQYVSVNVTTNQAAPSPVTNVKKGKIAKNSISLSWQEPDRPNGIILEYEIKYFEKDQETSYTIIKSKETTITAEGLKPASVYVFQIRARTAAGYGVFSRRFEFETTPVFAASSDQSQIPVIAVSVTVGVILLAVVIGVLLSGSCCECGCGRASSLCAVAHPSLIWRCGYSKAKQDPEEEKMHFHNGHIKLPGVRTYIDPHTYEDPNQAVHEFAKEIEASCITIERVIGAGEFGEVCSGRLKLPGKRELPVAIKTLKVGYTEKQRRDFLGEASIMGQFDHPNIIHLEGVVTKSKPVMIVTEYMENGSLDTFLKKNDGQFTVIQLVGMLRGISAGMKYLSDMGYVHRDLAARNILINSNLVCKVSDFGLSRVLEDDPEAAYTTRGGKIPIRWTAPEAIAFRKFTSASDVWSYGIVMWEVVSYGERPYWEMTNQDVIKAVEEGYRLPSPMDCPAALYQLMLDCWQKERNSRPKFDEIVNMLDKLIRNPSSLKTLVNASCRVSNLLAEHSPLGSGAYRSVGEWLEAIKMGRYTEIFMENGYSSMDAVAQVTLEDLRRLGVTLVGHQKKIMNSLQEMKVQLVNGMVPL

[7] = target: T3, Rhodopsin kinase GRK7 (Homo sapiens) (UniProt Q8WTQ7); assay: Selectivity interaction (KinomeScan (DiscoverX)) EUB0000618a GRK7; conditions: at 10 µM
T3 sequence (whole entry): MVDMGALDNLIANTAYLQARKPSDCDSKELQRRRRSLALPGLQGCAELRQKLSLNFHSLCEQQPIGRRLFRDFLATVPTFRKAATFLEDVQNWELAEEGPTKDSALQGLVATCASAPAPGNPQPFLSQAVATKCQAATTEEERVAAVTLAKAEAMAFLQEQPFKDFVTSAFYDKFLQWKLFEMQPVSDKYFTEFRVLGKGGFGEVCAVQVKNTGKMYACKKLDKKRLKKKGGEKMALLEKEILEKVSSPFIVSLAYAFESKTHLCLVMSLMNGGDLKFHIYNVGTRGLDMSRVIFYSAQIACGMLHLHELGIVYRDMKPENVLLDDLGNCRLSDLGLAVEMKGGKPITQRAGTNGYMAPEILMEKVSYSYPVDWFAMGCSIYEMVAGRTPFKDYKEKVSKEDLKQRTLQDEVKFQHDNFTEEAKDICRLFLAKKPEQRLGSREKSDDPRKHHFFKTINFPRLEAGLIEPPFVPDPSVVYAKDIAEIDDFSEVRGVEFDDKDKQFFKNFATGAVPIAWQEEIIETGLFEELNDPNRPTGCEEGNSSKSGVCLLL

[8] = target: Receptor tyrosine-protein kinase erbB-3 (Homo sapiens) (UniProt P21860); assay: Selectivity interaction (KinomeScan (DiscoverX)) EUB0000655a ERBB3; conditions: at 10 µM
Receptor tyrosine-protein kinase erbB-3 (Homo sapiens), sequence (P21860 whole entry, canonical isoform): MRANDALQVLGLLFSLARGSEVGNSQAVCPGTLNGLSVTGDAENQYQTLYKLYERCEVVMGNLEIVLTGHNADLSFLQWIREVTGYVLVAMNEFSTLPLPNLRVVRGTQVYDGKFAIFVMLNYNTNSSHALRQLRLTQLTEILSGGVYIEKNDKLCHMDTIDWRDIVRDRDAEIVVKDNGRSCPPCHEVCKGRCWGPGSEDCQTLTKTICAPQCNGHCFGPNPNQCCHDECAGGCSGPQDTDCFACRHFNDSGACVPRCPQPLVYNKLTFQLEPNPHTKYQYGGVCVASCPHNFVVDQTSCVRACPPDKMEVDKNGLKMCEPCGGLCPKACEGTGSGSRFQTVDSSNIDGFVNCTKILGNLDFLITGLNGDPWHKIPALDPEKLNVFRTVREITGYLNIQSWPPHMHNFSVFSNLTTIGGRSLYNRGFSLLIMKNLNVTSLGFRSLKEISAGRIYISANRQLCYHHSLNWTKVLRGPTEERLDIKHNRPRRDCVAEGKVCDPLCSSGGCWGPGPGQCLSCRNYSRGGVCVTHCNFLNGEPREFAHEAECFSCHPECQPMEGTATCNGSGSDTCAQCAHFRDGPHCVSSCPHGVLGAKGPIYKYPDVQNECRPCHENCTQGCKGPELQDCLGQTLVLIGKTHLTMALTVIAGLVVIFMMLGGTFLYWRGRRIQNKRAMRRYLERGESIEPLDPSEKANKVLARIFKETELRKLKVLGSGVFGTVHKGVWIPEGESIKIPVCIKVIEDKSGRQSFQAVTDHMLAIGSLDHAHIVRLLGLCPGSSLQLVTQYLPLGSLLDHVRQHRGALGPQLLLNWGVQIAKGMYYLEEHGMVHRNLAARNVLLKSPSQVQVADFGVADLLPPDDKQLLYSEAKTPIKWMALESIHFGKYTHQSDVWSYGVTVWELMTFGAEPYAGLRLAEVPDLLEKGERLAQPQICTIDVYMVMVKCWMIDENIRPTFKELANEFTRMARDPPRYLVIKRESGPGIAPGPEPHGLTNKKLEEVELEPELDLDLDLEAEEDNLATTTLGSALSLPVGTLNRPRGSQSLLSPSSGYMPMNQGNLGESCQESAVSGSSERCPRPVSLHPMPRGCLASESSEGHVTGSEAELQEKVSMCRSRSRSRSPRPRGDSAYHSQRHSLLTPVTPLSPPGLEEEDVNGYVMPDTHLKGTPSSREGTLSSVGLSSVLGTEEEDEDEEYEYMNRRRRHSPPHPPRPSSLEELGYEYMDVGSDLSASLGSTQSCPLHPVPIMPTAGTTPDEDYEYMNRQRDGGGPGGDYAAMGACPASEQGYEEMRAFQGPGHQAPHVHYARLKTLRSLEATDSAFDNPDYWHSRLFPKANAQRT

[9] = target: Casein kinase I isoform gamma-3 (Homo sapiens) (UniProt Q9Y6M4); assay: Selectivity interaction (KinomeScan (DiscoverX)) EUB0000092b CSNK1G3; conditions: at 10 µM
Casein kinase I isoform gamma-3 (Homo sapiens), sequence (Q9Y6M4 whole entry, looked up, canonical isoform): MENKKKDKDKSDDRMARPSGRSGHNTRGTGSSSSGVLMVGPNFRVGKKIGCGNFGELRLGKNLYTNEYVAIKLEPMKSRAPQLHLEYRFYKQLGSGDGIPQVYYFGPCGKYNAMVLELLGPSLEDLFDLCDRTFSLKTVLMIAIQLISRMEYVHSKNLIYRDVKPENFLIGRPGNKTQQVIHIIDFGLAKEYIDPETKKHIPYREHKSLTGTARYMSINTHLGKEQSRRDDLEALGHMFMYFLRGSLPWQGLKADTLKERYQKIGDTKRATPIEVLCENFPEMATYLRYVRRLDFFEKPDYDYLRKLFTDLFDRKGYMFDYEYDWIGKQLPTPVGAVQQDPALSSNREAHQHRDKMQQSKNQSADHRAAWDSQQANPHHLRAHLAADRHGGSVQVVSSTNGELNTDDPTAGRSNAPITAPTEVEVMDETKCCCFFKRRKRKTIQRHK

[10] = target: T4, Serine/threonine-protein kinase D1 (Homo sapiens) (UniProt Q15139); assay: Selectivity interaction (KinomeScan (DiscoverX)) EUB0000092b PRKD1; conditions: at 10 µM
T4 sequence (whole entry): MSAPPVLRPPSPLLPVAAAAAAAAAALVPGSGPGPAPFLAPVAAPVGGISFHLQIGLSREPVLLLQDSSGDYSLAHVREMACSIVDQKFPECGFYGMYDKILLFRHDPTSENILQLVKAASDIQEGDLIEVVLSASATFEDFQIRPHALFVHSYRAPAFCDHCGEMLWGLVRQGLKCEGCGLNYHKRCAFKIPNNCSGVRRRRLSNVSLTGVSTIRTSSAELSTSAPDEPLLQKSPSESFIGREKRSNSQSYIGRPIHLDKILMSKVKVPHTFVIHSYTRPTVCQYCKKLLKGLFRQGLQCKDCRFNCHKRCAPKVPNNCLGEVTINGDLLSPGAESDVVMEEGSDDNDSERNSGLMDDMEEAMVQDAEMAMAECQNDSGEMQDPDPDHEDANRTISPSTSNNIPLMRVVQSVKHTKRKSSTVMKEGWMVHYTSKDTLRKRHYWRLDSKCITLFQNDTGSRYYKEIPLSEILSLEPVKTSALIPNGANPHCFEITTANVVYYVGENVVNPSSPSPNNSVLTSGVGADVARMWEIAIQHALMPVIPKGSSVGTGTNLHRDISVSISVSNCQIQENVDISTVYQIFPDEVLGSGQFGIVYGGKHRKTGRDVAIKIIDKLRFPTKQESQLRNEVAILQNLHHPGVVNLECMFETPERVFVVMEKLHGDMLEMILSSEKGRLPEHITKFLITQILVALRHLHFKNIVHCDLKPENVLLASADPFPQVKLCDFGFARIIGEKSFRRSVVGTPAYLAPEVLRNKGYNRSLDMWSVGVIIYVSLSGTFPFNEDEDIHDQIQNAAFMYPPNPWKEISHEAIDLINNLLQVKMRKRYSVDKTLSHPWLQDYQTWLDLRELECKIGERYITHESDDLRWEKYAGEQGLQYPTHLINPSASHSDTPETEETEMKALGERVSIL

Serine/threonine-protein kinase N2, sequence (Q16513 whole entry, looked up): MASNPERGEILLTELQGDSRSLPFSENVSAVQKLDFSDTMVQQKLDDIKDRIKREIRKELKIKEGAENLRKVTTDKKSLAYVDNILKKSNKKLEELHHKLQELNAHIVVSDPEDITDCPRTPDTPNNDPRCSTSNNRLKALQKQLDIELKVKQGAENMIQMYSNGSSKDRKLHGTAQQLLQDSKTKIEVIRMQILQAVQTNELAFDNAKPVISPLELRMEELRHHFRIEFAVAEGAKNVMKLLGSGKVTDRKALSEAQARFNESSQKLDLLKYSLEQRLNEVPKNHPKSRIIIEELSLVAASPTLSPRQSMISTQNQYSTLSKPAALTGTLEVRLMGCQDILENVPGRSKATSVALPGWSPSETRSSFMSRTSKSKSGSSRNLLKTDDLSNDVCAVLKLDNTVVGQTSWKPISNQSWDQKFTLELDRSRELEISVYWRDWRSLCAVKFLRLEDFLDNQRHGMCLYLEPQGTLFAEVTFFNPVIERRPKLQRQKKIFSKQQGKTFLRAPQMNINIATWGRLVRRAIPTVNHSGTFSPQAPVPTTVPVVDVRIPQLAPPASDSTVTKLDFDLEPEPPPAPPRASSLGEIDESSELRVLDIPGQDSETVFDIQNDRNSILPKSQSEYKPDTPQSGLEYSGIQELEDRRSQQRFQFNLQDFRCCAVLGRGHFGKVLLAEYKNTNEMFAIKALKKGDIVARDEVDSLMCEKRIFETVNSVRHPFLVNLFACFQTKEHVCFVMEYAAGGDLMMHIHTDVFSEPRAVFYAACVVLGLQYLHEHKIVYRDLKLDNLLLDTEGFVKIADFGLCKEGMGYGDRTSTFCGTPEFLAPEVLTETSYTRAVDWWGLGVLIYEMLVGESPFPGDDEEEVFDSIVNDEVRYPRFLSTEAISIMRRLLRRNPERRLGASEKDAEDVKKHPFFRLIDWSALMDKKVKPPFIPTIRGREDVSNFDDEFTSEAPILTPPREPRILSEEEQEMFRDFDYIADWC

COc1cc(N(C)c2ccnc3ccc(C(F)(F)F)cc23)cc(OC)c1OC
% binding [1]: 84%

COCC(=O)NC/C=C/c1ccc2ncnc(Nc3ccc(Oc4ccc(C)nc4)c(C)c3)c2c1 [CP-724714]
% of control [2]: 100%

N#Cc1cccc(-c2c[nH]c3ncnc(N4CCOCC4)c23)c1
% of control [3]: 60%
% of control [4]: 78%

COCCN1CCC(c2cc(CN(C)C(=O)c3cccc(Oc4ccccc4)c3)ccn2)CC1
% activity ([5]; at 1 µM): < 1%
% activity ([5]; at 10 µM): 23%

CC(C)(O)[C@H](F)CN1Cc2cc(NC(=O)c3cnn4cccnc34)c(N3CCOCC3)cc2C1=O
dTM [6]: 2.4 K

O[C@H]1CC[C@H](Nc2ncc3nc(Nc4c(F)cc(F)cc4F)n([C@H]4CCOC4)c3n2)CC1
% of control [7]: 86%

CN(C)CCOc1ccc(-c2nc(-c3ccncc3)c(-c3ccc4c(c3)CC/C4=N\O)[nH]2)cc1
% of control [8]: 0.7%

CCC(=O)N1CCN(c2ccc(-n3c(=O)ccc4cnc5ccc(-c6cnc7ccccc7c6)cc5c43)cc2C(F)(F)F)CC1
% of control [9]: 100%
% of control [10]: 99%

— ChEMBL document CHEMBL5465560, “Selectivity Literature for EUbOPEN Chemogenomic Library” (2024)
